Source: patent publication US8569302B2, “Inhibitors of flaviviridae viruses” (Gilead Sciences, Inc., priority 2009, dated 2013)

What follows are compounds tested on human hepatoma Huh-7 cell line harboring a HCV replicon (assay: HCV replicon assay (inhibition of viral replication, luciferase readout)). Details: Hepatitis C virus, 72 h, Huh-7 HCV replicon cells, 3 days incubation.
Format: cell-based
In short: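 Read-outs: luciferase luminescence for replication inhibition, corrected by ITMN-191 (100% inhibition) wells, and calcein AM fluorescence for cytotoxicity. Cells were treated for 3 days at 37 °C with ten 3-fold compound dilutions in 0.44% final DMSO. Percent inhibition relative to DMSO was fitted with a Hill equation to give EC50 and CC50.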
With `CC1CCC(C(=O)N(CCOc2ccccn2)c2cc(C#CC(C)(C)C)sc2C(=O)O)CC1` (stereo not shown) [Compound 139, 5-(3,3-dimethyl-but-1-ynyl)-3-{(4-methyl-cyclohexanecarbonyl)-[3-(pyridin-2-yloxy)-ethyl]-amino}-thiophene-2-carboxylic acid] the inhibition at 2 µM was 96.4%.
`C[C@@H](CCOc1cncnc1)N(c1cc(C#CC(C)(C)C)sc1C(=O)O)C(=O)[C@H]1CC[C@H](C)CC1` [Compound 143, 5-(3,3-dimethyl-but-1-ynyl)-3-{(trans-4-methyl-cyclohexanecarbonyl)-[1-(S)-methyl-3-(pyrimidin-5-yloxy)-propyl]-amino}-thiophene-2-carboxylic acid] gave an inhibition at 2 µM of 100%.
`CCOc1cc(OCC[C@H](C)N(c2cc(C#CC(C)(C)C)sc2C(=O)O)C(=O)[C@H]2CC[C@H](C)CC2)c2ccc(OC)c(C)c2n1` [Compound 144, 5-(3,3-dimethyl-but-1-ynyl)-3-[[3-(2-ethoxy-7-methoxy-8-methyl-quinolin-4-yloxy)-1-(S)-methyl-propyl]-(4-methyl-cyclohexanecarbonyl)-amino]-thiophene-2-carboxylic acid] was tested, and the inhibition at 2 µM was 95.4%.
In the case of `CC(C)(C)C#Cc1cc(N(C(=O)[C@H]2CC[C@H](C)CC2)[C@H]2C[C@@H](Oc3ccccn3)C2)c(C(=O)O)s1` [Compound 146, 5-(3,3-Dimethylbut-1-ynyl)-3-(4-methyl-N-(3-(pyridin-2-yloxy)cyclobutyl)cyclohexanecarboxamido)thiophene-2-carboxylic acid], the inhibition at 2 µM is reported as 99.2%.
`CC(C)(C)C#Cc1cc(N(C(=O)[C@H]2CC[C@H](C)CC2)[C@H]2CC[C@H](Oc3cc[nH]c(=O)n3)CC2)c(C(=O)O)s1` [Compound 147, 5-(3,3-Dimethyl-but-1-ynyl)-3-{(trans-4-methyl-cyclohexanecarbonyl)-[trans-4-(2-oxo-1,2-dihydro-pyrimidin-4-yloxy)-cyclohexyl]-amino}-thiophene-2-carboxylic acid] showed an inhibition at 2 µM of 99.9%.
Work on `CCc1cnc(O[C@H]2CC[C@H](N(c3cc(C#CC(C)(C)C)sc3C(=O)O)C(=O)[C@H]3CC[C@H](C)CC3)CC2)nc1` [Compound 148, 5-(3,3-Dimethylbut-1-ynyl)-3-(N-(4-(5-ethylpyrimidin-2-yloxy)cyclohexyl)-4-methylcyclohexanecarboxamido)thiophene-2-carboxylic acid] yielded an inhibition at 2 µM of 96.6%.
In the case of `CC(C)(C)C#Cc1cc(N(C(=O)[C@H]2CC[C@H](C)CC2)[C@H]2CC[C@H](Oc3cccnc3N3CCCC3)CC2)c(C(=O)O)s1` [Compound 149, 5-(3,3-Dimethylbut-1-ynyl)-3-(4-methyl-N-(4-(2-(pyrrolidin-1-yl)pyridin-3-yloxy)cyclohexyl)cyclohexanecarboxamido)thiophene-2-carboxylic acid], the inhibition at 2 µM is reported as 99%.
Compound `CC(C)(C)C#Cc1cc(N(C(=O)[C@H]2CC[C@H](C)CC2)[C@H]2CC[C@H](Oc3cc(N4CCCC4)ncn3)CC2)c(C(=O)O)s1` [Compound 150, 5-(3,3-Dimethylbut-1-ynyl)-3-(4-methyl-N-(4-(6-(pyrrolidin-1-yl)pyrimidin-4-yloxy)cyclohexyl)cyclohexanecarboxamido)thiophene-2-carboxylic acid] has an inhibition at 2 µM of 99.6%.
In the case of `CN(C)c1nc(O[C@H]2CC[C@H](N(c3cc(C#CC(C)(C)C)sc3C(=O)O)C(=O)[C@H]3CC[C@H](C)CC3)CC2)ncc1F` [Compound 151, 3-(N-(4-(4-(Dimethylamino)-5-fluoropyrimidin-2-yloxy)cyclohexyl)-4-methylcyclohexanecarboxamido)-5-(3,3-dimethylbut-1-ynyl)thiophene-2-carboxylic acid], the inhibition at 2 µM is reported as 99.4%.
`CC(C)(C)C#Cc1cc(N(C(=O)[C@H]2CC[C@H](C)CC2)[C@H]2CC[C@H](Oc3cccc(N4CCCC4)n3)CC2)c(C(=O)O)s1` [Compound 152, 5-(3,3-Dimethylbut-1-ynyl)-3-(4-methyl-N-(4-(6-(pyrrolidin-1-yl)pyridin-2-yloxy)cyclohexyl)cyclohexanecarboxamido)thiophene-2-carboxylic acid] gave an inhibition at 2 µM of 73.7%.
In the case of `CC(C)(C)C#Cc1cc(N(C(=O)[C@H]2CC[C@H](C)CC2)[C@H]2CC[C@H](Oc3cncc(N4CCCC4)n3)CC2)c(C(=O)O)s1` [Compound 153, 5-(3,3-Dimethylbut-1-ynyl)-3-(4-methyl-N-(4-(6-(pyrrolidin-1-yl)pyrazin-2-yloxy)cyclohexyl)cyclohexanecarboxamido)thiophene-2-carboxylic acid], the inhibition at 2 µM is reported as 100%.
In the case of `Cc1nsc(OC2CCC(N(c3cc(C#CC(C)(C)C)sc3C(=O)O)C(=O)[C@H]3CC[C@H](C)CC3)CC2)n1` (stereo partly shown) [Compound 154, 5-(3,3-Dimethylbut-1-ynyl)-3-(4-methyl-N-(4-(3-methyl-1,2,4-thiadiazol-5-yloxy)cyclohexyl)cyclohexanecarboxamido)thiophene-2-carboxylic acid], the inhibition at 2 µM is reported as 99.7%.
Work on `CC(C)(C)C#Cc1cc(N(C(=O)[C@H]2CC[C@H](C)CC2)C2CCC(Oc3nc(CN4CCCC4)cs3)CC2)c(C(=O)O)s1` (stereo partly shown) [Compound 155, 5-(3,3-Dimethylbut-1-ynyl)-3-(4-methyl-N-(4-(4-(pyrrolidin-1-ylmethyl)thiazol-2-yloxy)cyclohexyl)cyclohexanecarboxamido)thiophene-2-carboxylic acid] yielded an inhibition at 2 µM of 100%.
Work on `CN(C)Cc1csc(OC2CCC(N(c3cc(C#CC(C)(C)C)sc3C(=O)O)C(=O)[C@H]3CC[C@H](C)CC3)CC2)n1` (stereo partly shown) [Compound 156, 3-(N-(4-(4-((Dimethylamino)methyl)thiazol-2-yloxy)cyclohexyl)-4-methylcyclohexanecarboxamido)-5-(3,3-dimethylbut-1-ynyl)thiophene-2-carboxylic acid] yielded an inhibition at 2 µM of 100%.
In the case of `CC(C)(C)C#Cc1cc(N(C(=O)[C@H]2CC[C@H](C)CC2)C2CCC(Oc3cc[n+]([O-])cc3)CC2)c(C(=O)O)s1` (stereo partly shown) [Compound 157, 5-(3,3-Dimethylbut-1-ynyl)-3-(4-methyl-N-(4-(pyridin-4-yloxy-N-oxide)cyclohexyl)cyclohexanecarboxamido)thiophene-2-carboxylic acid], the inhibition at 2 µM is reported as 99.9%.
For `CN(C)c1cc(O[C@H]2CC[C@H](N(c3cc(C#CC(C)(C)C)sc3C(=O)O)C(=O)[C@H]3CC[C@H](C)CC3)CC2)ncn1` [Compound 158, 3-(N-(4-(6-(Dimethylamino)pyrimidin-4-yloxy)cyclohexyl)-4-methylcyclohexanecarboxamido)-5-(3,3-dimethylbut-1-ynyl)thiophene-2-carboxylic acid], the inhibition at 2 µM was 99.9%.
With `CC(C)(C)C#Cc1cc(N(C(=O)[C@H]2CC[C@H](C)CC2)[C@H]2CC[C@H](Oc3ccc(N4CCCC4)nn3)CC2)c(C(=O)O)s1` [Compound 159, 5-(3,3-Dimethylbut-1-ynyl)-3-(4-methyl-N-(4-(6-(pyrrolidin-1-yl)pyridazin-3-yloxy)cyclohexyl)cyclohexanecarboxamido)thiophene-2-carboxylic acid] the inhibition at 2 µM was 99.8%.
`CN(C)c1ccc(O[C@H]2CC[C@H](N(c3cc(C#CC(C)(C)C)sc3C(=O)O)C(=O)[C@H]3CC[C@H](C)CC3)CC2)nn1` [Compound 160, 3-(N-(4-(6-(Dimethylamino)pyridazin-3-yloxy)cyclohexyl)-4-methylcyclohexanecarboxamido)-5-(3,3-dimethylbut-1-ynyl)thiophene-2-carboxylic acid] gave an inhibition at 2 µM of 99.9%.
Work on `CC(C)(C)C#Cc1cc(N(C(=O)[C@H]2CC[C@H](C)CC2)[C@H]2CC[C@H](Oc3nc(CN4CCCC4)ns3)CC2)c(C(=O)O)s1` [Compound 161, 5-(3,3-Dimethylbut-1-ynyl)-3-(4-methyl-N-(4-(3-(pyrrolidin-1-ylmethyl)-1,2,4-thiadiazol-5-yloxy)cyclohexyl)cyclohexanecarboxamido)thiophene-2-carboxylic acid] yielded an inhibition at 2 µM of 99.9%.
For `CC(C)(C)C#Cc1cc(N(C(=O)[C@H]2CC[C@H](C)CC2)[C@H]2CC[C@H](Oc3cncnc3)CC2)c(C(=O)O)s1` [Compound 162, 5-(3,3-Dimethylbut-1-ynyl)-3-(4-methyl-N-(4-(pyrimidin-5-yloxy)cyclohexyl)cyclohexanecarboxamido)thiophene-2-carboxylic acid], the inhibition at 2 µM was 99.9%.
In the case of `CC(C)(C)C#Cc1cc(N(C(=O)[C@H]2CC[C@H](C)CC2)[C@H]2CC[C@H](Oc3ccncn3)CC2)c(C(=O)O)s1` [Compound 163, 5-(3,3-Dimethylbut-1-ynyl)-3-(4-methyl-N-(4-(pyrimidin-4-yloxy)cyclohexyl)cyclohexanecarboxamido)thiophene-2-carboxylic acid], the inhibition at 2 µM is reported as 100%.
`CC(C)(C)C#Cc1cc(N(C(=O)[C@H]2CC[C@H](C)CC2)[C@H]2CC[C@H](Oc3cc(C(=O)N4CCCC4)ccn3)CC2)c(C(=O)O)s1` [Compound 166, Sodium 5-(3,3-dimethylbut-1-ynyl)-3-(4-methyl-N-(4-(4-(pyrrolidine-1-carbonyl)pyridin-2-yloxy)cyclohexyl)cyclohexanecarboxamido)thiophene-2-carboxylate] was tested, and the inhibition at 2 µM was 99.9%.
`CN1CCC(NC(=O)c2ccnc(O[C@H]3CC[C@H](N(c4cc(C#CC(C)(C)C)sc4C(=O)O)C(=O)[C@H]4CC[C@H](C)CC4)CC3)c2)CC1` [Compound 167, Sodium 3-(N-(4-(4-((1-methylpiperidin-4-yl)carbamoyl)pyridin-2-yloxy)cyclohexyl)-4-methylcyclohexanecarboxamido)-5-(3,3-dimethylbut-1-ynyl)thiophene-2-carboxylate] was tested, and the inhibition at 2 µM was 99.9%.
`CC(C)(C)C#Cc1cc(N(C(=O)[C@H]2CC[C@H](C)CC2)[C@H]2CC[C@H](Oc3cc(C(=O)N4CCC4)ccn3)CC2)c(C(=O)O)s1` [Compound 168, Sodium 3-(N-(4-(4-(azetidine-1-carbonyl)pyridin-2-yloxy)cyclohexyl)-4-methylcyclohexanecarboxamido)-5-(3,3-dimethylbut-1-ynyl)thiophene-2-carboxylate] was tested, and the inhibition at 2 µM was 99.9%.

Same assay, conditions: Huh-7 HCV replicon cells, 3 days incubation
`CC(C)(C)C#Cc1cc(N(C(=O)[C@H]2CC[C@H](C)CC2)[C@H]2C[C@@H](Oc3ccc[n+]([O-])c3)C2)c(C(=O)O)s1` [Compound 145, 5-(3,3-Dimethyl-but-1-ynyl)-3-{(trans-4-methyl-cyclohexanecarbonyl)-[cis-3-(pyridin-3-yloxy-N-oxide)-cyclobutyl]-amino}-thiophene-2-carboxylic acid] was tested, and the “% inhibition at 2μM” value was 99.5%.
